Where two headings read alike, the source gives them in different places.
Columns and labels:
osteoporosis model rats = experiment: Inhibition of decrease in bone density in ovariectomized osteoporosis model rats; type: in vivo, Fisher rats; settings: 400 µg/kg orally once a day for 4 months
Protocol: Effect of the compound of the present invention to inhibit decrease in the bone density was evaluated using osteoporosis model rats. […] The remaining 8 rats were subjected to sham operation and used as a control group (Group C). […] After completion of the administration, the left side femur of each rat was excised to measure its volume (V) and dry weight (W) to calculate a bone density (D) based on a formula, D = W/V [formula] . […]

[1] = system: human breast cancer cell line MCF-7; experiment: Growth inhibition of human breast cancer cell MCF-7 (Methylene Blue staining); type: cell-based; settings: read-out: Growth inhibition of MCF-7 (human breast cancer cells) (IC₅₀)
Protocol: (Growth inhibition of human breast cancer cell MCF-7)
Effect of the compound of the present invention on breast cancer were examined using a human breast cancer cell line MCF-7. Predetermined dilutions of each compound of the present invention were added to a 96 well microtiter plate purchased from Falcon, and the cancer cells were inoculated into each well with a inoculum size of 10³ cells per well (10⁴ cells in the case of 100 nM estrogen (E)). The thus prepared plate was supplied with RPMI 1640 medium which has been supplemented with 5% of fetal bovine serum and further with a predetermined amount of estrogen, and incubated at 37°C for 6 days (3 days in the case of 100 nM estrogen) in the presence of 5% CO₂. Thereafter, viable cells were fixed with glutaraldehyde and stained with Methylene Blue to measure absorbance at 665 nm.

[2] = system: human breast cancer cultured cell line ZR-75-1; experiment: Growth inhibition of human breast cancer cultured cell line ZR-75-1 (Methylene Blue staining); type: cell-based; settings: 120 h, ZR-75-1, 10⁻⁹ mole of estrogen, 5 days, read-out: IC₅₀
Protocol: Effect of the triphenylalkene derivative of the present invention on breast cancer were examined using a human breast cancer cultured cell line ZR-75-1. Predetermined dilutions of each triphenylalkene derivative of the present invention were added to a 96 well microtiter plate purchased from Falcon, and the cancer cells were inoculated into each well with a inoculum size of 2 x 10³ cells per well. The thus prepared plate was supplied with RPMI 1640 medium which has been supplemented with 10% of fetal bovine serum and further with 10⁻⁹ mole of estrogen, and incubated at 37°C for 5 days in the presence of 5% CO₂. Thereafter, viable cells were fixed with glutaraldehyde, stained with Methylene Blue and then extracted with 0.33 N of hydrochloric acid to measure absorbance at 665 nm. […]

[3] = MCF7, 144 h, 1 nM added amount of E (estrogen), 6 days
[4] = MCF7, 144 h, 0.1 nM added amount of E (estrogen), 6 days
[5] = MCF7, 72 h, 100 nM added amount of E (estrogen), 3 days, 10⁴ cells per well

Structure (SMILES)	IC50 [1, 3] [nM]	other results
CCC(=C(c1ccc(O)cc1)c1ccc(OCC(O)CN(C)C)cc1)c1ccc2c(c1)OCO2 (stereo not drawn) [Compound 1, (E·Z)-1-[4-(3-dimethylamino-2-hydroxypropoxy)-phenyl]-1-(4-hydroxyphenyl)-2-(3,4-methylenedioxyphenyl)-1-butene]		inhibition of decrease in the bone density caused by the ovariectomy (osteoporosis model rats; compared with Tamoxifen): significantly inhibited decrease in the bone density; Bone density (osteoporosis model rats; left femur, D = W/V, ovariectomized rats): 1.0312
CCC(=C(c1ccc(O)cc1)c1ccc(OCC(O)CN(CC)CC)cc1)c1ccc2c(c1)OCO2 (stereo not drawn) [Compound 2, (E·Z)-1-[4-(3-diethylamino-2-hydroxypropoxy)-phenyl]-1-(4-hydroxyphenyl)-2-(3,4-methylenedioxyphenyl)-1-butene]	60	
CCC(=C(c1ccc(O)cc1)c1ccc(OCC(O)CN(C)CC)cc1)c1ccc2c(c1)OCO2 (stereo not drawn) [Compound 3, (E·Z)-1-[4-(3-ethylmethylamino-2-hydroxypropoxy)phenyl]-1-(4-hydroxyphenyl)-2-(3,4-methylenedioxyphenyl)-1-butene]	100	
CCC(=C(c1ccc(O)cc1)c1ccc(OCC(O)CN(C)C2CCCCC2)cc1)c1ccc2c(c1)OCO2 (stereo not drawn) [Compound 4, (E·Z)-1-[4-(3-cyclohexylmethylamino-2-hydroxypropoxy)phenyl]-1-(4-hydroxyphenyl)-2-(3,4-methylenedioxyphenyl)-1-butene]	210	
CC/C(=C(\c1ccccc1)c1ccc(OCC(O)CN(C)C)cc1)c1ccc2c(c1)OCO2 (stereo not drawn) [Compound 6, (Z)-1-[4-(3-dimethylamino-2-hydroxypropoxy)-phenyl]-1-phenyl-2-(3,4-methylenedioxyphenyl)-1-butene]	1800	
CCC(=C(c1ccc(O)cc1)c1ccc(OCC(O)CN(C)C)cc1)c1ccccc1 (stereo not drawn) [Compound 7, (E·Z)-1-[4-(3-dimethylamino-2-hydroxypropoxy)-phenyl]-1-(4-hydroxyphenyl)-2-phenyl-1-butene]	210	
CCC(=C(c1ccc(O)cc1)c1ccc(OCC(O)CNC2CCCCC2)cc1)c1ccccc1 (stereo not drawn) [Compound 8, (E·Z)-1-[4-(3-cyclohexylamino-2-hydroxypropoxy)-phenyl]-1-(4-hydroxyphenyl)-2-phenyl-1-butene]	620	IC50 [2]: 1400 nM
CCC(=C(c1ccc(O)cc1)c1ccc(OCC(O)CNC2CCCCC2)cc1)c1ccc2c(c1)OCO2 (stereo not drawn) [Compound 9, (E·Z)-1-[4-(3-cyclohexylamino-2-hydroxypropoxy)-phenyl]-1-(4-hydroxyphenyl)-2-(3,4-,methylenedioxyphenyl)-1-butene]	460	IC50 [2]: 950 nM
CCC(=C(c1ccc(O)cc1)c1ccc(OCC(O)CNC)cc1)c1ccc2c(c1)OCO2 (stereo not drawn) [Compound 10, (E·Z)-1-[4-(3-methylamino-2-hydroxypropoxy)-phenyl]-1-(4-hydroxyphenyl)-2-(3,4-,methylenedioxyphenyl)-1-butene]	500	IC50 [2]: 870 nM
CCNCC(O)COc1ccc(C(=C(CC)c2ccc3c(c2)OCO3)c2ccc(O)cc2)cc1 (stereo not drawn) [Compound 11, (E·Z)-1-[4-(3-ethylamino-2-hydroxypropoxy)-phenyl]-1-(4-hydroxyphenyl)-2-(3,4-methylenedioxyphenyl)-1-butene]	50	IC50 [2]: 1600 nM
CC/C(=C(\c1ccccc1)c1ccc(OCC(O)CNC2CCCCC2)cc1)c1ccccc1 (stereo not drawn) [Compound 12, (Z)-1-[4-(3-cyclohexylamino-2-hydroxypropoxy)-phenyl]-1,2-diphenyl-1-butene]	1200	IC50 [2]: 1400 nM
CCNCC(O)COc1ccc(/C(=C(/CC)c2ccccc2)c2ccccc2)cc1 (stereo not drawn) [Compound 13, (Z)-1-[4-(3-ethylamino-2-hydroxypropoxy)phenyl]-1,2-diphenyl-1-butene]	5400	
CC/C(=C(\c1ccccc1)c1ccc(OCC(O)CNC(C)C)cc1)c1ccccc1 (stereo not drawn) [Compound 14, (Z)-1-[4-(3-isopropylamino-2-hydroxypropoxy)-phenyl]-1,2-diphenyl-1-butene]		IC50 [1, 4]: 410 nM
CCC(=C(c1ccc(OCC(CN(C)C)OC(C)=O)cc1)c1ccc(OC(C)=O)cc1)c1ccc2c(c1)OCO2 (stereo not drawn) [Compound 15, (E·Z)-1-[4-(3-dimethylamino-2-acetoxypropoxy)-phenyl]-1-(4-acetoxyphenyl)-2-(3,4-methylenedioxyphenyl)-1-butene]	310	
CCC(=C(c1ccc(O)cc1)c1ccc(OCC(CN(C)C)OC(C)=O)cc1)c1ccc2c(c1)OCO2 (stereo not drawn) [Compound 16, (E·Z)-1-[4-(3-dimethylamino-2-acetoxypropoxy)-phenyl]-1-(4-hydroxyphenyl)-2-(3,4-methylenedioxyphenyl)-1-butene]	160	
CCC(=C(c1ccc(O)cc1)c1ccc(OC(CN(C)C)CN(C)C)cc1)c1ccc2c(c1)OCO2 [Compound 18, (E·Z)-1-[4-(1,3-bisdimethylamino-2-propoxy)-phenyl]-1-(4-hydroxyphenyl)-2-(3,4-methylenedioxyphenyl)-1-butene]	430	

Structure (SMILES)	IC50 [1, 3] [nM]	other results
CCC(=C(c1ccc(O)cc1)c1ccc(OCCNC2CCCCC2)cc1)c1ccc2c(c1)OCO2 [Compound 19, (E·Z)-1-[4-(2-cyclohexylaminoethoxy)phenyl]-1-(4-hydroxyphenyl)-2-(3,4-methylenedioxyphenyl)-1-butene]	160	
CCC(=C(c1ccc(O)cc1)c1ccc(OCCN(C)C)cc1)c1ccc2c(c1)OCO2 [Compound 20, (E·Z)-1-[4-(2-dimethylaminoethoxy)phenyl]-1-(4-hydroxyphenyl)-2-(3,4-methylenedioxyphenyl)-1-butene]	190	
CCC(=C(c1ccc(C=NO)cc1)c1ccc(OCCN(C)C)cc1)c1ccccc1 [Compound 21, 2-[4-[1-(4-hydroxyiminomethylphenyl)-2-phenyl-1-butenyl]phenoxy]-N,N-dimethylethylamine]	4600	
CCC(=C(c1ccc(C=NOC)cc1)c1ccc(OCCN(C)C)cc1)c1ccccc1 [Compound 22, 2-[4-[1-(4-methoxyiminomethylphenyl)-2-phenyl-1-butenyl]phenoxy]-N,N-dimethylamine]	7100	
CCC(=C(c1ccc(OCCN(C)C)cc1)c1cccc(C=NO)c1)c1ccccc1 [Compound 23, 2-[4-[1-(3-hydroxyiminomethylphenyl)-2-phenyl-1-butenyl]phenoxy]-N,N-dimethylamine]	6800	
CCC(=C(c1ccccc1)c1ccc(OCC(O)CN(C)C)cc1)c1ccccc1 (stereo not drawn) [Compound 30]	3300	
CCC(=C(c1ccc(OCOC)cc1)c1ccc(OCC(O)CN(C)C)cc1)c1ccc2c(c1)OCO2 (stereo not drawn) [Compound 32]		IC50 [1, 5]: 3800 nM
CCC(=C(c1ccccc1)c1ccc(OCC(O)CN(C)CC)cc1)c1ccc2c(c1)OCO2 (stereo not drawn) [Compound 33]		IC50 [1, 4]: 600 nM
CCC(=C(c1ccccc1)c1ccc(OCC(O)CN(C)C)cc1)c1ccc2c(c1)OCO2 (stereo not drawn) [Compound 34]	6300	IC50 [1, 5]: 10200 nM
CCC(=C(c1ccccc1)c1ccc(OC(CN(C)C)CN(C)C)cc1)c1ccccc1 [Compound 35]	1900	
CCC(=C(c1ccccc1)c1ccc(OC(CN(CC)CC)CN(CC)CC)cc1)c1ccccc1 [Compound 36]	1600	
CCC(=C(c1ccc(O)cc1)c1ccc(OC(CN(CC)CC)CN(CC)CC)cc1)c1ccc2c(c1)OCO2 [Compound 37]	60	
CCC(=C(c1ccccc1)c1ccc(OCC(O)CNC2CCCCC2)cc1)c1ccc2c(c1)OCO2 (stereo not drawn) [Compound 38]		IC50 [1, 4]: 210 nM
CCC(=C(c1ccccc1)c1ccc(OCC(O)CNC2CCCCC2)cc1)c1ccccc1 (stereo not drawn) [Compound 39]		IC50 [1, 5]: 5600 nM
CCC(=C(c1ccccc1)c1ccc(OCC(O)CNC2CCCC2)cc1)c1ccccc1 (stereo not drawn) [Compound 40]		IC50 [1, 5]: 2700 nM
CCC(=C(c1ccccc1)c1ccc(OCC(O)CNC2CCC2)cc1)c1ccccc1 (stereo not drawn) [Compound 41]		IC50 [1, 5]: 3400 nM

Source: EP0589039A1, “[…] DERIVATIVE AND PHARMACEUTICAL PREPARATION CONTAINING THE SAME” (Asahi Kasei Kogyo Kabushiki Kaisha, priority 1991, dated 1992)
